Assay results reported in patent publication US20080090893A1, “Medicinal Composition for Prevention of Transition to Operative Treatment for Prostatic Hypertrophy” (Kissei Pharmaceutial Co., Ltd., priority 2004, published 2008).
Counter-ions that a name gives are not always drawn.

Experiments:
[1] = tested on: patients of benign prostatic hyperplasia who are subject to surgical therapy (overall severity severe); experiment: Placebo-controlled, parallel groups-comparing double blind trial, 12 weeks oral administration (I-PSS total score, QOL score); format: in vivo
Description: Based on the results of a placebo-controlled, parallel groups-comparing double blind trial carried out in patients of benign prostatic hyperplasia, clinical effects of silodosin and tamsulosin hydrochloride in patients who are subject to surgical therapy were evaluated. As the patients who are subject to surgical therapy, patients whose overall severity before administration was “severe” based on the criteria for judging overall severity (Non-patent Reference 3) were extracted.
Objects: 147 patients who are subject to surgical therapy for benign prostatic hyperplasia
Administration method: oral administration for 12 weeks
Administered groups: Silodosin group (4 mg silodosin/once, twice a day, 63 patients), Tamsulosin group (0.2 mg tamsulosin hydrochloride, once a day, 55 patients) and Placebo group (placebo drug, 29 patients).
Primary endpoints: I-PSS total score, QOL score
Criteria for judging overall severity: in the severity of respective judging items shown in Table 1, the overall severity is regarded as “severe” when “severe” is present in 2 items or more. In this connection, the Qmax in the table means maximum flow rate (mL/second), RU means residual urine volume (mL) and PV means estimated prostate volume (mL) by ultrasonic tomography.
I-PSS items questioned • (1) Sensation of residual urine
The scores of (1) to (6) are as follows.
Not at all: 0 point, less than 1 time in 5: 1 point, less than 1 time in 2: 2 points, about 1 time in 2: 3 points, more than 1 time in 2: 4 points, almost always: 5 points. • (7) Nocturia
None: 0 point, 1 time: 1 point, 2 times: 2 points, 3 times: 3 points, 4 times: 4 points, 5 times or more: 5 points.
Very satisfied 0 point, satisfied: 1 point, generally satisfied: 2 points, neither satisfied nor unsatisfied: 3 points, a little unsatisfied: 4 points, unsatisfied: 5 points, very unsatisfied: 6 points.
Regarding the case of patients whose overall severity before administration was severe based on the criteria for judging overall severity (Non-patent Reference 3), changes in I-PSS total score and QOL score at the final evaluation were compared. The results are shown in Table 2 and Table 3, respectively.
Next, the effect of each administration group to improve the severity of I-PSS total score was evaluated in the patients of benign prostatic hyperplasia whose overall severity before administration was severe.

[2] = tested on: patients of benign prostatic hyperplasia who are subject to surgical therapy (overall severity moderate and severe); experiment: Long-term administration test, 52 weeks (maximum flow rate Qmax); format: in vivo; settings: 4 mg silodosin twice a day oral
Source text: Based on the results from a long-term administration test in patients of benign prostatic hyperplasia, effects of silodosin on objective symptoms of patients who are subject to surgical therapy were examined. As the patients who are subject to surgical therapy, patients whose overall severities before administration were “moderate” and “severe” according to the criteria for judging overall severity described in the above Table 1 were extracted.
Objects: 229 patients who are subject to surgical therapy for benign prostatic, hyperplasia
Analyzed groups: 101 severe patients (reduced to 2 mg/once in 9 cases among them), 128 moderate patients (reduced to 2 mg/once in 17 cases among them)

[3] = overall severity before administration severe, oral, silodosin 4 mg twice a day, tamsulosin hydrochloride 0.2 mg once a day
[4] = severity of I-PSS total score, severe patients

Row | SMILES | Change in I-PSS at the end Mean ± standard deviation [1, 3] | Change in QOL at the end Mean ± SD [1, 3] | Severity of subjective symptoms at the end, Mild (0-7), % of patients [1, 4] | Severity of subjective symptoms at the end, Mild (0-7), number of patients [1, 4] | Severity of subjective symptoms at the end, Moderate (8-19), % of patients [1, 4] | Severity of subjective symptoms at the end, Moderate (8-19), number of patients [1, 4] | Severity of subjective symptoms at the end, Severe (20-35), % of patients [1, 4] | Severity of subjective symptoms at the end, Severe (20-35), number of patients [1, 4] | Maximum flow rate (Qmax), change after 52 weeks (mean ± SD) ([2]; Moderate group) [mL/s] | Maximum flow rate (Qmax), change after 52 weeks (mean ± SD) ([2]; Moderate group, listed as silodosin) [mL/s] | Maximum flow rate (Qmax), change after 52 weeks (mean ± SD) ([2]; Severe group) [mL/s] | Maximum flow rate (Qmax), change after 52 weeks (mean ± SD) ([2]; Severe group, listed as silodosin) [mL/s]
1 | CCOc1ccccc1OCCN[C@H](C)Cc1ccc(OC)c(S(N)(=O)=O)c1 [Tamsulosin, tamsulosin hydrochloride] | −8.6 ± 6.2^3) N.S. | −1.5 ± 1.3^3) N.S. | (21.8%) | 12 | (61.8%) | 34 | (16.4%) | 9 | – | – | – | –
2 | C[C@H](Cc1cc2c(c(C(N)=O)c1)N(CCCO)CC2)NCCOc1ccccc1OCC(F)(F)F [Silodosin, (−)-1-(3-hydroxypropyl)-5-((2R)-2-{[2-({2-[(2,2,2-trifluoroethyl)oxy]phenyl}oxy)ethyl]amino}propyl)-2,3-dihydro-1H-indole-7-carboxamide] | – | – | – | 24 | (52.4%) | 33 | (9.5%) | 6 | 2.3 ± 5.3 | 2.3 | 3.2 ± 4.9 | 3.2
